Numbers after ± are expanded uncertainties.
Columns and labels:
[1] = Molar enthalpy of transition or fusion; conditions: Crystal; DSC
[2] = Crystal; DTA

For `CCCCCCCCCCCC(=O)OCC` [ethyl dodecanoate], the “Molar enthalpy of transition or fusion” value [1] was 9.29 ± 0.263 kcal/mol and the Normal melting temperature [2] was 0.1 ± 0.7 °C.
For `CCCCCCCCCCCCCCCCCC(=O)OCC` [ethyl octadecanoate], the “Molar enthalpy of transition or fusion” value [1] was 14.3 ± 0.382 kcal/mol and the Normal melting temperature [2] was 34.2 ± 0.7 °C.
For `CCCCCCCCCCCCCCCC(=O)OCC` [ethyl hexadecanoate], the “Molar enthalpy of transition or fusion” value [1] was 13.3 ± 0.359 kcal/mol and the Normal melting temperature [2] was 25.08 ± 0.7 °C.
